A word on the EC50: it is the concentration needed to bring the measured effect to its halfway point.

T1 sequence (P41594 21-1212): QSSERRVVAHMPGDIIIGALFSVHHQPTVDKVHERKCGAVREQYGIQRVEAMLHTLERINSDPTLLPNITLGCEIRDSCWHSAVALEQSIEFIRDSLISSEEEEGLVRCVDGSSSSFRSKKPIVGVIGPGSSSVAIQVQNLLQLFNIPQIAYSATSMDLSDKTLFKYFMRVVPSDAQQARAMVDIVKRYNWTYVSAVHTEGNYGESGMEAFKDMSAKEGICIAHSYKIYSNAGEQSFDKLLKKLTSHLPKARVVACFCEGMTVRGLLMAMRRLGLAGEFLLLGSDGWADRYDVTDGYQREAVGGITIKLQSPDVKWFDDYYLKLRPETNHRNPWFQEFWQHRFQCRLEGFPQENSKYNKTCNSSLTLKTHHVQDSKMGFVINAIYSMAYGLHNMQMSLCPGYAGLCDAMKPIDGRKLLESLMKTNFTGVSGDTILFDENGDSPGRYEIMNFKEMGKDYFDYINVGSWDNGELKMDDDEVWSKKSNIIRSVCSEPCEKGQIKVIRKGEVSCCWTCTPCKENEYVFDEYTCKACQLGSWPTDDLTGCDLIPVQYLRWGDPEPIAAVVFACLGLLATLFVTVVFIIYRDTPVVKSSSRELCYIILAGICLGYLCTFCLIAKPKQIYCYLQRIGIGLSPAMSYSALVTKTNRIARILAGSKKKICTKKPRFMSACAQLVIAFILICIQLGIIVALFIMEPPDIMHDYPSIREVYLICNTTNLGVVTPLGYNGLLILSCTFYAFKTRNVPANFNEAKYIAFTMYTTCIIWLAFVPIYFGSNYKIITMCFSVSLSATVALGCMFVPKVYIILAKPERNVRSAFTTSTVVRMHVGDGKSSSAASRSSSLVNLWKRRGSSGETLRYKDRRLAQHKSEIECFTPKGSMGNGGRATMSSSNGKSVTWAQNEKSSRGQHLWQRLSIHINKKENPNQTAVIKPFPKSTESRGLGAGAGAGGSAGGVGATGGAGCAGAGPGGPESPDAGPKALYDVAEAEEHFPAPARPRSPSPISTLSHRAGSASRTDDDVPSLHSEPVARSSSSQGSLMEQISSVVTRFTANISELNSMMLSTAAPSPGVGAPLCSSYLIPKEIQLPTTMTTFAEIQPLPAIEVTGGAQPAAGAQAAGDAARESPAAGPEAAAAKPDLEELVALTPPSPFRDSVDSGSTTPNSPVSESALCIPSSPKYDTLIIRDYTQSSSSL

This assay has as its target T1, human recombinant mGluR5 (Homo sapiens, UniProt P41594).
T1 construct: expressed in transfected cells; host or cells: HEK 293 cell line cultured with tetracycline, hygromycin and geneticin; tetracycline removed 3-7 days before the assay
The assay can be described thus: positive modulation of mGluR5, calcium based FLIPR assay in HEK 293 cells. The settings on record: HEK 293 cell line expressing human recombinant mGluR5; EC50 of the modulation of the glutamate response (glutamate approx. 5% basal stimulation); peak height of Ca release fluorescence signal. As for the experimental part:
The positive modulation of mGluR5 is measured in a HEK 293 cell line expressing human recombinant mGluR5 and is detected with calcium based FLIPR assay. The cells are cultured with DMEM supplemented with 10% FCS, 2 μg/mL tetracycline, 100 μg/mL hygromycin and 500 μg/mL gneticin. The cell culture media is exchanged for tetracycline-free cell culture media 3-7 days before the assay. One day before the assay the cell culture medium is exchanged to DMEM without glutamine and phenol red and supplemented with 10% FCS, 100 μg/mL hygromycin and 500 μg/mL geneticin. On the assay day, the medium of the subconfluent cultures is removed and the cells are detached by addition of 2.5 ml EDTA (0.02%) per 175 cm2 culture flask for 1 minute. The cells are resuspend in Ringer solution (140 mM NaCl, 5 mM KCl, 2.5 mM CaCl2, 1.5 mM MgCl2, 5 mM Glucose, 10 mM Hepes; adjusted to pH 7.4 with NaOH), pooled and Ringer solution added to adjust the volume to 50 mL. The cell suspension is centrifuged for […] at 1500 U/min (425 g). The supernatant is removed and the cells washed a second time with 50 ml fresh Ringer solution and centrifuged again as before. The supernatant is again removed and the pellet resuspended in Ringer solution to 1,000,000 cells/ml (1×10^6 cells/mL). The cells are plated onto BD BioCoat Poly-D-Lysine 384 well plates (20.000 cells/well; 20 μl/well). The lid covered plates are then incubated until use at 37° C./10% CO2. For dye loading, 20 μl of Calcium-4 assay kit solution (prepared according to the manufacturer's description in Ringer solution) are added to the cells and the plates are incubated for 80 min 37° C. and then 10 min at room temperature.
Controls, Compound Dilution and Assay Execution:
Each assay plate contained wells with “high” and “low” controls:
Low controls 1% DMSO/ringer solution+basal glutamate activation (defined as 100% CTL).
High controls 10 μM CDPPB+basal glutamate activation (defined as 200% CTL).
Test compounds are dissolved and diluted in DMSO to 100-fold the desired concentrations. In a second step, the compounds are diluted in Ringer solution such that the compounds are 4-fold more concentrated than the desired final assay concentration. The final DMSO concentration was 1%.
20 μl of each compound solution are then transferred to the assay plate and the Ca2+ kinetic is measured to determine any intrinsic compound activity. After 5 min incubation in the FLIPR device, the second stimulation with 20 μl of glutamate in Ringer solution (glutamate concentration adjusted to approximately 5% basal stimulation of the maximal possible glutamate effect) is added and the kinetic Ca2+ response of the wells was measured for the modulation effect.
The peak height of the Ca release related fluorescence signal (9-66) is used for the EC50. The EC50 of the modulation is calculated over a nonlinear regression with GraphPad Prism (Table 1).
`Cc1ccc(N2CCN(C(=O)Cn3nc(-c4ccc(F)cc4)nc3-c3ccc(F)cc3)CC2)nc1` [Example 07.02.06.]: the 50% effective concentration (EC50) was 0.155 µM.

Regarding `CN(CCO)CCOc1cc(N2CCN(C(=O)Cn3nc(-c4ccc(F)cc4)nc3-c3ccc(F)cc3)CC2)ncn1` [Example 07.09.25.], the EC50 came out at 0.301 µM. With `O=C(Cn1nc(-c2ccc(OC(F)F)cc2)nc1-c1ccccc1)N1CCN(c2ncccn2)CC1` [Example 7.04.165] the figure was 0.013 µM.

As for `CCCc1nc(-c2ccc(OC(F)F)cc2)nn1CC(=O)N1CCN(c2ccccn2)CC1` [Example 7.04.167], the EC50 amounted to 0.527 µM.

With `O=C(Cn1nc(-c2ccc(F)cc2)nc1-c1ccc(F)cc1)N1CCN(c2cc(OCC3CCOC3)ncn2)CC1` (stereo not shown) [Example 07.09.05.], the EC50 was determined as 0.041 µM. In the case of `Cc1cc(-c2nc(C3CCCCC3)n(CC(=O)N3CCN(c4ccccn4)CC3)n2)ccc1F` [Example 07.04.071.] it was 0.347 µM; in that of `COc1cncc(N2CCN(C(=O)Cn3nc(-c4ccc(F)cc4)nc3-c3ccc(F)cc3)CC2)n1` [Example 07.03.18.], 0.179 µM.

Regarding `Cc1cc(C#N)nc(N2CCN(C(=O)Cn3nc(-c4ccc(F)cc4)nc3-c3ccc(F)cc3)CC2)n1` [Example 07.03.15.], the EC50 came to 0.574 µM.

On to `CCCCCc1nc(-c2ccc(F)c(C)c2)nn1CC(=O)N1CCN(c2ncccn2)CC1` [Example 07.04.127.], for which the EC50 is 0.064 µM. With `COc1cnnc(N2CCN(C(=O)Cn3nc(-c4ccc(F)c(C)c4)nc3-c3ccccc3)CC2)c1` [Example 07.04.064.] the figure was 0.192 µM; with `O=C(Cn1nc(-c2ccc(F)cc2)nc1-c1ccc(F)cc1)N1CCN(c2cnccn2)CC1` [Example 07.04.008.], 0.117 µM. In the case of `CCc1nc(-c2ccc(F)c(C)c2)nn1CC(=O)N1CCN(c2ncccn2)CC1` [Example 07.04.092.] it was 0.654 µM; in that of `O=C(Cn1nc(-c2ccc(F)cc2)nc1-c1ccc(F)cc1)N1CCN(c2cc(O[C@H]3COC[C@H]3O)ncn2)CC1` [Example 07.09.15.], 0.224 µM; in that of `Cc1cc(-c2nc(C(C)C)n(CC(=O)N3CCN(c4ncccn4)CC3)n2)ccc1F` [Example 07.04.089.], 0.34 µM. Take `COc1ccnc(N2CCN(C(=O)Cn3nc(-c4ccc(F)cn4)nc3-c3ccc(F)cc3)CC2)c1` [Example 07.04.142.]: the EC50 worked out at 0.434 µM. With `CN(C)c1cc(N2CCN(C(=O)Cn3nc(-c4ccc(F)cc4)nc3-c3ccc(F)cc3)CC2)ccn1` [Example 07.03.23.] the figure was 1.01 µM; with `O=C(Cn1nc(-c2ccc(F)cc2)nc1-c1ccc(F)cc1)N1CCN(c2cc(N3CCC3)ncn2)CC1` [Example 07.08.22.], 0.28 µM; with `Cc1cc(-c2nc(C3CCCCC3)n(CC(=O)N3CCN(c4ncc(Cl)cn4)CC3)n2)ccc1F` [Example 07.04.069.], 0.229 µM. With `O=C(Cn1nc(-c2ccc(F)cc2)nc1-c1ccc(F)cc1)N1CCN(c2nccc(C(F)(F)F)n2)CC1` [Example 07.03.03.] the figure was 0.595 µM. `COc1ccc(-c2nc(-c3ccccc3)n(CC(=O)N3CCN(c4ncccc4C(F)(F)F)CC3)n2)cc1OC` [Example 07.02.23.]: the EC50 was determined as 1.91 µM. As for `CCCc1nc(-c2ccc(OC(F)F)cc2)nn1CC(=O)N1CCN(c2cc(OC)ncn2)CC1` [Example 7.04.169], the EC50 worked out at 0.928 µM. With `O=C(Cn1nc(-c2ccc(F)cc2)nc1-c1ccc(F)cc1)N1CCN(c2ncncn2)CC1` [Example 07.03.14.] the figure was 0.085 µM. With `Cc1ccnc(N2CCN(C(=O)Cn3nc(-c4ccc(F)c(C)c4)nc3C3CCCC3)CC2)c1` [Example 07.04.114.] the figure was 0.495 µM; with `CCCCc1nc(-c2ccc(F)c(C)c2)nn1CC(=O)N1CCN(c2cc(OC)ccn2)CC1` [Example 07.04.118.], 0.255 µM; with `O=C(Cn1nc(-c2ccc(F)cc2)nc1-c1ccc(F)cc1)N1CCN(c2cc(Cl)ccn2)CC1` [Example 07.04.015.], 0.364 µM. In the case of `COc1ccc(-c2nc(-c3ccc(F)cc3)n(CC(=O)N3CCN(c4cc(OC)ccn4)CC3)n2)cc1` [Example 07.04.039.] it was 0.03 µM. On to `CN1CCN(CCCOc2cc(N3CCN(C(=O)Cn4nc(-c5ccc(F)cc5)nc4-c4ccc(F)cc4)CC3)ncn2)CC1` [Example 07.09.26.], for which the EC50 amounted to 0.252 µM. With `COc1ccnc(N2CCN(C(=O)Cn3nc(-c4ccc(F)c(C)c4)nc3CC(C)C)CC2)c1` [Example 07.04.107.] the figure was 0.5 µM; with `O=C(Cn1nc(-c2ccccc2)nc1C1=CCCC1)N1CCN(c2ncccn2)CC1` [Example 07.10.23.], 0.459 µM; with `COc1cccc(-c2nc(-c3ccc(F)cc3)nn2CC(=O)N2CCN(c3cc(C)ccn3)CC2)c1` [Example 07.04.025.], 0.868 µM. With `Cc1cc(-c2nc(CC(C)C)n(CC(=O)N3CCN(c4ncccn4)CC3)n2)ccc1F` [Example 07.04.108.] the figure was 0.317 µM; with `O=C(Cn1nc(-c2cccc(F)c2)nc1-c1cccc(F)c1)N1CCN(c2ncccn2)CC1` [Example 07.04.023.], 0.37 µM.

On to `COc1cccc(-c2nc(C3CCCCC3)n(CC(=O)N3CCN(c4ccccn4)CC3)n2)c1` [Example 07.04.053.], for which the EC50 was 1.15 µM. In the case of `Cc1ccnc(N2CCN(C(=O)Cn3nc(-c4ccc(F)cn4)nc3-c3ccc(F)cc3)CC2)c1` [Example 07.04.138.] it was 1.01 µM. Turning to `N#Cc1ccccc1N1CCN(C(=O)Cn2nc(-c3ccc(F)cc3)nc2-c2ccc(F)cc2)CC1` [Example 07.04.007.], the EC50 was 1.35 µM.

As to `Cc1cc(C)nc(N2CCN(C(=O)Cn3nc(-c4ccc(F)cc4)nc3-c3ccc(F)cc3)CC2)n1` [Example 07.03.07.], the EC50 came out at 0.61 µM.

In the case of `COc1cc(N2CCN(C(=O)Cn3nc(-c4ccc(F)cn4)nc3-c3ccc(F)cc3)CC2)ncn1` [Example 07.04.141.], the EC50 was found to be 0.932 µM. With `CCc1nc(-c2ccc(F)c(C)c2)nn1CC(=O)N1CCN(c2cc(OC)ncn2)CC1` [Example 07.04.093.] the figure was 1.73 µM; with `CCCCCc1nc(-c2ccc(F)c(C)c2)nn1CC(=O)N1CCN(c2cc(OC)ccn2)CC1` [Example 07.04.123.], 0.092 µM; with `O=C(Cn1nc(-c2ccc(F)cc2)nc1-c1ccc(F)cc1)N1CCN(c2ccccc2F)CC1` [Example 07.04.13.], 1.21 µM. In the case of `COc1ccnc(N2CCN(C(=O)Cn3nc(-c4ccc(F)c(C)c4)nc3C(C)C)CC2)c1` [Example 07.04.088.] it was 0.896 µM; in that of `O=C(Cn1nc(-c2ccc(F)cc2)nc1-c1ccc(F)cc1)N1CCN(c2cccnn2)CC1` [Example 07.03.12.], 0.134 µM.

For the molecule `O=C(Cn1nc(-c2ccc(F)cn2)nc1-c1ccc(F)cc1)N1CCN(c2ccccn2)CC1` [Example 07.04.139.], the EC50 amounted to 0.809 µM. With `CN(C)CCOc1cc(N2CCN(C(=O)Cn3nc(-c4ccc(F)cc4)nc3-c3ccc(F)cc3)CC2)ncn1` [Example 07.07.02.] the figure was 0.988 µM. With `COc1ccc(-c2nc(-c3ccc(F)cc3)nn2CC(=O)N2CCN(c3ncc(Br)cn3)CC2)cc1` [Example 07.04.044.] the figure was 0.088 µM; with `COc1cc(-c2nc(-c3ccc(F)cc3)n(CC(=O)N3CCN(c4ccccn4)CC3)n2)ccc1F` [Example 07.04.157.], 0.036 µM.

The record behind these values is US8889677B2, “Substituted triazoles useful as mGlu5 receptor modulators” (Boehringer Ingellheim International GmbH, priority 2012, dated 2014).
